Assay results taken from ChEMBL document CHEMBL1201862, “PubChem BioAssay data set” (2004).
The source made the active and inactive calls.

Legend:
[1] = test system: Streptococcus sp. 'group A'; test: Streptococcus pyogenes SK(-)GAS viability under kanamycin – luminescence, BacTiterGlo, confirmation, counter-screen for streptokinase expression inhibitor project, dose response (AID 1900); type: functional, organism-based
Streptokinase A = target: T1, Streptokinase A (Streptococcus pyogenes serotype M1, UniProt P10520); test: viability-normalized secreted streptokinase activity reduction – plasminogen activation absorbance, OD405, dose response (AID 1914); type: functional, Streptococcus pyogenes M1 GAS;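 also: secreted streptokinase activity via plasminogen activation per viability signal from cell pellet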
T1 sequence (P10520 whole entry): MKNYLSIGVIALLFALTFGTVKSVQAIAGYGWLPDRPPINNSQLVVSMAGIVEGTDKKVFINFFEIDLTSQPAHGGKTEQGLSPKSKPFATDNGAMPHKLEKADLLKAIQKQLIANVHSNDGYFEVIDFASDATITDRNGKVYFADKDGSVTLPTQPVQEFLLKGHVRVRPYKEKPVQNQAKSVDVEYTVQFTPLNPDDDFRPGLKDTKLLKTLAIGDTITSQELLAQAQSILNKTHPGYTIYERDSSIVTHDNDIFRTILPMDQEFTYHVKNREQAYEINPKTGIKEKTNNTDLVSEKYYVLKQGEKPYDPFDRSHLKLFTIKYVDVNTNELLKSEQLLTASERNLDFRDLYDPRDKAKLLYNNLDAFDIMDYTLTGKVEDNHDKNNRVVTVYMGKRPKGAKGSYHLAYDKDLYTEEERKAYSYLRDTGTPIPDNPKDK

[2] = Trypanosoma cruzi growth suppression in host cells – NIH3T3 host cells, beta-gal luminescence, confirmation (AID 2044); type: functional, cell-based;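 also: intracellular parasites grown in NIH/3T3 mouse fibroblasts as host cells; luminescent beta-galactosidase reporter signal from transgenic T. cruzi replicating inside host cells; inhibitors lower the luminescence signal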
[3] = NIH3T3 cell viability loss – ATP luminescence, mouse fibroblasts, counter-screen, dose response (AID 2010); type: functional, cell-based;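 also: cells exposed to compound for about 90 hours before reading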
Streptococcus = test: GAS UMAA2166 growth inhibition – luminescence, BacTiterGlo, counter-screen for streptokinase expression inhibitor project, dose response (AID 1915); type: functional, organism-based;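 also: potency for reduction of bacterial viability or growth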
[4] = microbe, parasite or virus in culture; type: functional; details: Mycobacterium tuberculosis
[5] = target: Disintegrin and metalloproteinase domain-containing protein 17 (Homo sapiens, UniProt P78536); test: inhibition of ADAM17 substrate cleavage – biochemical, quenched FRET substrate, counter-screen for ADAM10 exosite inhibitor project, dose response (AID 743253)
Sequence of Disintegrin and metalloproteinase domain-containing protein 17 (P78536 whole entry, the tested form may be a part): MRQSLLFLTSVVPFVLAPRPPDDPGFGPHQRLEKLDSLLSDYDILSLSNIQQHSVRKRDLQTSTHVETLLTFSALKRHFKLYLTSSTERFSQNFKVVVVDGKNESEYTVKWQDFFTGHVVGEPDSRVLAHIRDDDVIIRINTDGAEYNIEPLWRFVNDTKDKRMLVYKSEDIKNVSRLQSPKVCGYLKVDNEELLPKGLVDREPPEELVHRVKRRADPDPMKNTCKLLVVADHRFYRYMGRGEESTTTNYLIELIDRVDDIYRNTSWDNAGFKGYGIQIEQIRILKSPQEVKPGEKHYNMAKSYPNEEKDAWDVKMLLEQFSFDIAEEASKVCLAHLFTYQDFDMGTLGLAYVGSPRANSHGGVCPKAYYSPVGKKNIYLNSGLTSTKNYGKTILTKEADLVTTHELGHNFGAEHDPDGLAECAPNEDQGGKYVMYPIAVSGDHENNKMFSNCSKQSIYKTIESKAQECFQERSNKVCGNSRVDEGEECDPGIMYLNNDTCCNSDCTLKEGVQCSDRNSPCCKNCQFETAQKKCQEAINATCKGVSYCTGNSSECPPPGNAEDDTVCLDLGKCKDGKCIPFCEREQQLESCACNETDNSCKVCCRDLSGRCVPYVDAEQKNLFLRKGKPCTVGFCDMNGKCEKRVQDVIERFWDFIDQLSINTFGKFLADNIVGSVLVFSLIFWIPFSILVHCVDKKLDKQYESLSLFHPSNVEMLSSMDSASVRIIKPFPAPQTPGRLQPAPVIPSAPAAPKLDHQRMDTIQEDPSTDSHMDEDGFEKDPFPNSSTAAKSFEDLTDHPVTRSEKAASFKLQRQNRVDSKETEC

Protein RecA = target: T2, Protein RecA (Mycobacterium tuberculosis, UniProt P9WHJ3); test: Fluorescence Cell-Free Homogeneous Dose Retest to Identify Inhibitors of RecA-Intein Splicing Activity. [Related pubchem assays (depositor defined):AID2097, AID2223, AID489010, AID492950]; type: functional
T2 sequence (P9WHJ3 whole entry): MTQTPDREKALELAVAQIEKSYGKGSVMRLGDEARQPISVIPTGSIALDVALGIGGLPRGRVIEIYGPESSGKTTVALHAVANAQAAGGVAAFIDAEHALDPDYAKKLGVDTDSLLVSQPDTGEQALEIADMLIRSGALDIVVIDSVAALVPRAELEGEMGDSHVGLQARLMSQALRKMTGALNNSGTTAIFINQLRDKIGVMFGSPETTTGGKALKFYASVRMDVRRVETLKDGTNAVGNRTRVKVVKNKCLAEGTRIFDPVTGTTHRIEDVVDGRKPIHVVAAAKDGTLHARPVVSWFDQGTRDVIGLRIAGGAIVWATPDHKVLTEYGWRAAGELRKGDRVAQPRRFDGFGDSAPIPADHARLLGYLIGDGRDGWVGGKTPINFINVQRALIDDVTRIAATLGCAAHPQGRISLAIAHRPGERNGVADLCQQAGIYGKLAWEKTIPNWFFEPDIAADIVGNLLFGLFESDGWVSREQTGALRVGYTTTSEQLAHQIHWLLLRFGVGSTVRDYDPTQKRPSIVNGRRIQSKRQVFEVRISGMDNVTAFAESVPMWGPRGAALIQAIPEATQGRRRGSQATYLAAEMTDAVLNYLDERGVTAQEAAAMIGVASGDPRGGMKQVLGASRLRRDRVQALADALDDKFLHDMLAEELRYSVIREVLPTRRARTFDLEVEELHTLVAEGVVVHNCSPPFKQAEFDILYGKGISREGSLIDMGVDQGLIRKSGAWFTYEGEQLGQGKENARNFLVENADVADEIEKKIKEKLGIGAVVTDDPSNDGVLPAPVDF

Paired box protein Pax-8 = Paired box protein Pax-8 (Homo sapiens, UniProt Q06710); test: PAX8 transcriptional activity inhibition in RMG-I – RMG-I cells, luciferase, cherry-pick, dose response (AID 687027); type: functional, cell-based;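 also: luciferase reporter driven by Pax8 target thyroperoxidase promoter measured by SteadyGlo luminescence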
Sequence of Paired box protein Pax-8 (Q06710 whole entry): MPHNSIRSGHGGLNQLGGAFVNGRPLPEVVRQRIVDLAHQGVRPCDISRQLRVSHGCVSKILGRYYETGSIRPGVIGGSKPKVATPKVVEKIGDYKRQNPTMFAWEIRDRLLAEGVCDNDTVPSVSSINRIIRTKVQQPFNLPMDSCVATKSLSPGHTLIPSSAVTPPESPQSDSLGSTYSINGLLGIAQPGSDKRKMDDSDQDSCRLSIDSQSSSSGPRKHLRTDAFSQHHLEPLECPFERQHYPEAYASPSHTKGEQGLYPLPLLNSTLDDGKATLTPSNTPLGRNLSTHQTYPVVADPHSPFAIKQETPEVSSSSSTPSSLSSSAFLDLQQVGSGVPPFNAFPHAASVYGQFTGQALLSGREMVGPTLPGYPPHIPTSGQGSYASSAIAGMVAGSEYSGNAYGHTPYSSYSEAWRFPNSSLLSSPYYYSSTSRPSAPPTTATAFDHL

[6] = target: T3, Replicative DNA helicase DnaB (Mycobacterium tuberculosis, UniProt P9WMR3); test: DnaB intein splicing inhibitors, dose response, biochemical, cell-free fluorescence (AID 449749); type: functional
T3 sequence (P9WMR3 whole entry): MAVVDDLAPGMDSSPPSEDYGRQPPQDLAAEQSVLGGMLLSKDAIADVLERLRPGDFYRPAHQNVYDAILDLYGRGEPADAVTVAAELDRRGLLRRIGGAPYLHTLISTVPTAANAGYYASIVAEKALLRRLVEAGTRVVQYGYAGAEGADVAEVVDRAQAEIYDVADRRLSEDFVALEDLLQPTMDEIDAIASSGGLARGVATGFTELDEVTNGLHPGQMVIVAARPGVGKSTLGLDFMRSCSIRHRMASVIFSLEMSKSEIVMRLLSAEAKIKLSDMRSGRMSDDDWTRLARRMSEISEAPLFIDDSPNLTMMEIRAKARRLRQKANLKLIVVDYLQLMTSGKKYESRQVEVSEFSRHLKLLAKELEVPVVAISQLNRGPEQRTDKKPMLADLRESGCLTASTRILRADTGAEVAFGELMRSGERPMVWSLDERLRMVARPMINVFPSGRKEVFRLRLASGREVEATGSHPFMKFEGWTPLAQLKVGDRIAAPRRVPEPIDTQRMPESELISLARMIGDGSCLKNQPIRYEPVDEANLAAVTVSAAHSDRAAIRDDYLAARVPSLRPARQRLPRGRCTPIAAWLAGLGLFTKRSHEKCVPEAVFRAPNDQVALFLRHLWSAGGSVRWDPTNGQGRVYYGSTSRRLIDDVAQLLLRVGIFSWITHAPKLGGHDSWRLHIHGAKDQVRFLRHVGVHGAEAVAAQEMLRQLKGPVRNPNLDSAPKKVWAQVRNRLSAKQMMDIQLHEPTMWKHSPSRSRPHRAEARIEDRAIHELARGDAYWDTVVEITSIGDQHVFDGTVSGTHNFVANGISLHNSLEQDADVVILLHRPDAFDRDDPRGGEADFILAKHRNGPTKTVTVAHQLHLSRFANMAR

[7] = general cell-killing toxicity readout – plate reader, dry powder samples, cytotoxicity control for PAX8 inhibitor project, dose response (AID 743021); type: functional, cell-based
[8] = target: Heat shock protein HSP 90-alpha (Homo sapiens, UniProt P07900); test: Luminescence-based dose response biochemical high throughput screening assay for inhibitors of the Heat Shock Protein 90 (HSP90). [Related pubchem assays: 1831 (Summary AID.), 1846 (Confirmation screen.), 1789 (Primary screen.)]
[9] = P. falciparum Dd2 growth inhibitors, dose response, SYBR Green, cherry-picked samples (AID 1159567); type: functional, cell-based
[10] = toxicity to human HepG2 hepatoma cells – cell-based, plate reader, dry powder samples, cytotoxicity control, dose response (AID 1159569); type: functional;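 also: inhibitor potency with signal falling toward the positive control level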
[11] = Dd2 malaria parasite growth inhibition potency – SYBR Green, dry powder samples, dose response (AID 1159566); type: functional, cell-based;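 also: potency for growth inhibition with lower SYBR green DNA signal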
[12] = growth inhibition of PfATP4-mutant resistant parasites – NITD609-resistant line, SYBR Green, dry powder, dose response (AID 1159571); type: functional, cell-based;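 also: parasites synchronized at ring stage by sorbitol before testing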
[13] = growth inhibition of yeast DHODH-expressing 3D7 parasites – SYBR Green, dry powder samples, dose response (AID 1159570); type: functional, cell-based;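 also: parasite growth measured after 72 hours of compound exposure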
cells [14] = type: functional, cell-based
[15] = target: T4, Trace amine-associated receptor 1 (Homo sapiens, UniProt Q96RJ0); test: Counterscreen for agonists of the human trace amine associated receptor 1 (hTAAR1): Fluorescence-based cell-based high throughput dose response assay to identify hTAAR1 agonist that also desensitize TAAR1 receptor response.; type: functional
T4 sequence (Q96RJ0 whole entry): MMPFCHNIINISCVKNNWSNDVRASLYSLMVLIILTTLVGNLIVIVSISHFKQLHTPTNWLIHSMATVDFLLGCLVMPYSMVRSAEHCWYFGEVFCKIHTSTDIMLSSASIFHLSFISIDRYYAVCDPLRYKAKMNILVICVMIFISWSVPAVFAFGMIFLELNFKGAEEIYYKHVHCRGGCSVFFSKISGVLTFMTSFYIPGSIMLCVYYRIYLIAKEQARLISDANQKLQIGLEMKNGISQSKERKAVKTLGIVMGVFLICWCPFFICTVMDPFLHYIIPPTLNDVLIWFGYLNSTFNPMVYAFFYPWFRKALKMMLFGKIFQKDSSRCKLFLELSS

cells [16] = type: functional, cell-based; remark: listed apart in the source
[17] = target: T4, Trace amine-associated receptor 1; test: Fluorescence-based cell-based high throughput dose response assay to identify agonists of the human trace amine associated receptor 1 (TAAR1).; type: functional
[18] = fluconazole-exposed Candida albicans growth modulators – fluorescence, retest, confirmation (AID 2467); type: functional, cell-based
[19] = NIH-3T3 fibroblast cytotoxicity, dose response, cytotoxicity control, cell-based, fluorescence, Alamar Blue, secondary assay (AID 2327); type: functional;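 also: NIH-3T3 mouse fibroblasts cultured with fluconazole at 8 µg/mL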
[20] = target: T5, Mannose-6-phosphate isomerase (Homo sapiens, UniProt P34949); test: MPI inhibition at elevated mannose 6-phosphate – biochemical, fluorescence intensity, high mannose 6-phosphate, primary screen (AID 1220)
T5 sequence (P34949 whole entry): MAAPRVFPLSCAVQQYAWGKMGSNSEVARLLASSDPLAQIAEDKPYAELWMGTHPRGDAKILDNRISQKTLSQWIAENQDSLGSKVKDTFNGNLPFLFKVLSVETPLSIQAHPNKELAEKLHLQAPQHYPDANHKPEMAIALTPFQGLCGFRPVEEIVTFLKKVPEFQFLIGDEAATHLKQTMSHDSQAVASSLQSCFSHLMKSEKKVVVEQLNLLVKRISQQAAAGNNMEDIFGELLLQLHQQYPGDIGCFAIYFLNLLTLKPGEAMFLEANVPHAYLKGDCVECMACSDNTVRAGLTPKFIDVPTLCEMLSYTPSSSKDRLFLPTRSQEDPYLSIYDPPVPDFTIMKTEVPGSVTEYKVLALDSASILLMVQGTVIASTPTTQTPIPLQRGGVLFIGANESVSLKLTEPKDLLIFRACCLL

**Q.** Which results are given for `Cc1cc(C)c(CSc2nc(-c3ccc([N+](=O)[O-])cc3)c[nH]2)c(C)c1`?
**A.** EC50 [1]: 3.92 µM (active); EC50 (Streptokinase A): 10.3 µM (active); EC50 [2]: 3.48 µM (active); EC50 [3]: > 60 µM (inconclusive); EC50 (Streptococcus): 39.4 µM (active); CC50 [4]: 22.3 µM (active); IC50 [5]: > 69.5 µM (inactive)

**Q.** For `O=C(CCl)N(Cc1ccccc1)c1ccccc1`, which EC50 (Protein RecA) is on record?
**A.** 0.813 µM (active)

**Q.** And the AC50 (Paired box protein Pax-8)?
**A.** 3.95 µM (active)

**Q.** And the AC50 [6]?
**A.** 18.4 µM (active)

**Q.** What about the AC50 [7] of the same compound?
**A.** 9.34 µM (active)

**Q.** With `COc1ccc(N(/N=C2\Sc3ccccc3C2=O)C(C)=O)cc1` as the compound, how does the IC50 [8] read?
**A.** 1.96 µM (active)

**Q.** For `O=C(Cc1ccccc1)N1CCN(S(=O)(=O)c2ccc([N+](=O)[O-])cc2)CC1`, which IC50 [8] is on record?
**A.** 29.1 µM (not active)

**Q.** Which results are given for `O=C(C1CCCC1)N1CC[C@@H]2[C@H]1c1cc(-c3cccc(F)c3)ccc1N[C@@H]2CO`?
**A.** AC50 [9]: 0.996 µM (active); AC50 [10]: 19.9 µM (active); AC50 [11]: 0.641 µM (active); AC50 [12]: 0.577 µM (active); AC50 [13]: 1.03 µM (active)

**Q.** With `CCc1ccccc1NC(=O)N1CCc2ccccc2C1` as the compound, how does the IC50 (cells [14]) read?
**A.** > 29.9 µM (inactive)

**Q.** What about the IC50 [15] of the same compound?
**A.** > 29.9 µM (inactive)

**Q.** And the EC50 (cells [16])?
**A.** > 29.9 µM (inactive)

**Q.** What about the EC50 [17] of the same compound?
**A.** 0.321 µM (active)

**Q.** With `CCOC(=O)N1CCN(Cc2ccc(O)c3ncccc23)CC1` as the compound, how does the EC50 [18] read?
**A.** > 38 µM (not active)

**Q.** And the EC50 [19]?
**A.** > 150 µM (inactive)

**Q.** What about the IC50 [20] of the same compound?
**A.** 10.6 µM (active)
